What follows are compounds tested against HPK1 (Homo sapiens, UniProt Q92918) (assay: SLP76 phosphorylation assay (intracellular HPK1 inhibitory activity, p-SLP76 S376 ELISA in Jurkat cells)). Conditions: p-SLP76 IC50, Jurkat, Clone E6-1 cells; 1 h compound pre-incubation; anti-CD3 beads stimulation 20 min; Phospho-SLP-76 (Ser376) ELISA.
HPK1, sequence (Q92918 whole entry): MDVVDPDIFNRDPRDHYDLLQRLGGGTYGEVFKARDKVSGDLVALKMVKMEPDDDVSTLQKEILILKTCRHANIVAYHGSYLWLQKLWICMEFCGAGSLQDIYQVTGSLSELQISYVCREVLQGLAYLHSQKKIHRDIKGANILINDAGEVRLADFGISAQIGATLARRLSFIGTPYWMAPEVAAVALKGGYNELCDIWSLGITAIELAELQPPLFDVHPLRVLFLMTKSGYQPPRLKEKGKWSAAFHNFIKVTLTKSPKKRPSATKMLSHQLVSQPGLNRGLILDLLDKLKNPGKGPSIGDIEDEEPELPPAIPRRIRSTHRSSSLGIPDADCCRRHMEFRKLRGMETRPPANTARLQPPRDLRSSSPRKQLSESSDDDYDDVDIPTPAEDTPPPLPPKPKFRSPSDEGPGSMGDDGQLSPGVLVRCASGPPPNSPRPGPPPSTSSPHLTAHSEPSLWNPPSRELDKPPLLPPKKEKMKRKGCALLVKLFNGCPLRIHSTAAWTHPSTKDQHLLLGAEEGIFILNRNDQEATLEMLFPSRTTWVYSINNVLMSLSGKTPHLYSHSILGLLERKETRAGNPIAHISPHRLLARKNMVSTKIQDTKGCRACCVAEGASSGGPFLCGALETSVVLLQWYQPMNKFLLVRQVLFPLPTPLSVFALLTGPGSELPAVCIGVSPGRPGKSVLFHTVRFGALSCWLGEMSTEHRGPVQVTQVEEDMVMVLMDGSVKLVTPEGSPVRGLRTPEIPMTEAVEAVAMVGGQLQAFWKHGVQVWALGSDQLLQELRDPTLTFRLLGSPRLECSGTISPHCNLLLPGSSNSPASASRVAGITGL
In the case of `O=C(N1CCc2cc(-c3cnc4[nH]cc(Cl)c4c3)cc([C@@H]3COCCN3)c2C1)C1(O)CCOCC1` [Compound Z485, (R)-(6-(3-chloro-1H-pyrrolo[2,3-b]pyridin-5-yl)-8-(morpholin-3-yl)-3,4-dihydroisoquinolin-2(1H)-yl)(4-hydroxytetrahydro-2H-pyran-4-yl)methanone], the IC50 is reported as 126 nM. Work on `CCc1c(Cl)[nH]c2ncc(-c3cc4c(c([C@@H]5COCCN5)c3)CN(C(=O)N3CC5CCC(C3)O5)CC4)cc12` [Compound Z514, (8-oxo-3-azabicyclo[3.2.1]octane-3-yl)(6-(2-chloro-3-ethyl-1H-pyrrolo[2,3-b]pyridin-5-yl)-8-((R)-morpholin-3-yl)-3,4-dihydroisoquinolin-2(1H)-yl)methanone] yielded an IC50 of 134 nM. For `Cc1c[nH]c2ncc(-c3cc4c(c(C5COCCN5)c3)CN(C(=O)[C@](C)(O)C(F)(F)F)CC4)cc12` (single isomer, unassigned) [Compound Z309-1], the IC50 was 82.6 nM. `Cc1c[nH]c2ncc(-c3cc4c(c([C@@H]5COCCN5)c3)CN(C(=O)N3CC5CCC(C3)N5C)CC4)cc12` [Compound Z462] gave an IC50 of 255 nM. With `O=C(N1CCc2cc(-c3cnc4[nH]cc(F)c4c3)cc([C@@H]3COCCN3)c2C1)N1CC2CCC(C1)O2` [Compound Z475] the IC50 was 117 nM. `CC1(C)CC(O)CN1C(=O)N1CCc2cc(-c3cnc4[nH]cc(Cl)c4n3)cc([C@@H]3COCCN3)c2C1` (stereo partly drawn) [Compound Z569, (6-(7-chloro-5H-pyrrolo[2,3-b]pyrazin-2-yl)-8-((R)-morpholin-3-yl)-3,4-dihydroisoquinolin-2(1H)-yl)(4-hydroxy-2,2-dimethylpyrrolidin-1-yl)methanone] gave an IC50 of 154 nM. Compound `O=C(N1CCc2cc(-c3cnc4[nH]cc(Cl)c4n3)cc([C@@H]3COCCN3)c2C1)N1CC2CCC1CO2` (stereo partly drawn) [Compound Z550, (2-oxa-5-azabicyclo[2.2.2]octan-5-yl)(6-(7-chloro-5H-pyrrolo[2,3-b]pyrazin-2-yl)-8-((R)-morpholin-3-yl)-3,4-dihydroisoquinolin-2(1H)-yl)methanone] has an IC50 of 117 nM. With `O=C(N1CCOCC1)N1CCc2cc(-c3cnc4[nH]cc(Cl)c4c3)cc([C@@H]3COCCN3)c2C1` [Compound Z483, (R)-(6-(3-chloro-1H-pyrrolo[2,3-b]pyridin-5-yl)-8-(morpholin-3-yl)-3,4-dihydroisoquinolin-2(1H)-yl)(morpholine)methanone] the IC50 was 112 nM. With `COC1CN(C(=O)N2CCc3cc(-c4cnc5[nH]cc(C)c5c4)cc([C@@H]4COCCN4)c3C2)C(C)(C)C1` (stereo partly drawn) [Compound Z461, (4-methoxy-2,2-dimethylpyrrolidin-1-yl)(6-(3-methyl-1H-pyrrolo[2,3-b]pyridin-5-yl)-8-((R)-morpholin-3-yl)-3,4-dihydroisoquinolin-2(1H)-yl)methanone] the IC50 was 195 nM. `CCc1c[nH]c2ncc(-c3cc4c(c([C@@H]5COCCN5)c3)CN(C(=O)c3cnc(C)nc3)CC4)nc12` [Compound Z533, (R)-(6-(7-ethyl-5H-pyrrolo[2,3-b]pyrazin-2-yl)-8-(morpholin-3-yl)-3,4-dihydroisoquinolin-2(1H)-yl)(2-methylpyrimidin-5-yl)methanone] was tested, and the IC50 was 229 nM. `Cc1c[nH]c2ncc(-c3cc4c(c([C@@H]5COCCN5)c3)CN(C(=O)N3C[C@@H](C)O[C@@H](C)C3)CC4)cc12` [Compound Z519, ((2R,6S)-2,6-dimethylmorpholine)(6-(3-methyl-1H-pyrrolo[2,3-b]pyridin-5-yl)-8-((R)-morpholin-3-yl)-3,4-dihydroisoquinolin-2-1H-yl)methanone] showed an IC50 of 197 nM. `Cc1c[nH]c2ncc(-c3cc4c(c([C@@H]5COCCN5)c3)CN(C(=O)N3CC5(COC5)C3)CC4)cc12` [Compound Z579, (R)-(6-(3-methyl-1H-pyrrolo[2,3-b]pyridin-5-yl)-8-(morpholin-3-yl)-3,4-dihydroisoquinolin-2(1H)-yl)(2-oxa-6-oxaspiro[3.3]heptan-6-yl)methanone] was tested, and the IC50 was 276 nM. `CS(=O)(=O)N1CCc2cc(-c3cnc4[nH]cc(Cl)c4c3)cc([C@@H]3COCCN3)c2C1` [Compound Z501, (R)-3-(6-(3-chloro-1H-pyrrolo[2,3-b]pyridin-5-yl)-2-(methylsulfonyl)-1,2,3,4-tetrahydroisoquinolin-8-yl)morpholine] showed an IC50 of 285 nM. Compound `C[C@H]1COCCN1C(=O)N1CCc2cc(-c3cnc4[nH]cc(Cl)c4n3)cc([C@@H]3COCCN3)c2C1` [Compound Z573] has an IC50 of 122 nM. `CC(C)(O)C(=O)N1CCc2cc(-c3cnc4[nH]cc(Cl)c4n3)cc([C@@H]3COCCN3)c2C1` [Compound Z465, (R)-3-(6-(7-chloro-5H-pyrrolo[2,3-b]pyrazin-2-yl)-2-(2-hydroxy-2-methylpropanoyl)-1,2,3,4-tetrahydroisoquinolin-8-yl)morpholine] gave an IC50 of 144 nM. With `Cc1c[nH]c2ncc(-c3cc4c(c([C@@H]5COCCN5)c3)CN(C(=O)N3CC5CCC(C3)C5O)CC4)cc12` (stereo partly drawn) [Compound Z551, (8-hydroxy-3-azabicyclo[3.2.1]octan-3-yl)(6-(3-methyl-1H-pyrrolo[2,3-b]pyridin-5-yl)-8-((R)-morpholin-3-yl)-3,4-dihydroisoquinolin-2(1H)-yl)methanone] the IC50 was 498 nM. `CC1(C)COCCN1C(=O)N1CCc2cc(-c3cnc4[nH]cc(Cl)c4c3)cc([C@@H]3COCCN3)c2C1` [Compound Z503, (R)-(6-(3-chloro-1H-pyrrolo[2,3-b]pyridin-5-yl)-8-(morpholin-3-yl)-3,4-dihydroisoquinolin-2(1H)-yl)(3,3-dimethylmorpholino)methanone] showed an IC50 of 168 nM. `Cc1cc(C(=O)N2CCc3cc(-c4cnc5[nH]cc(Cl)c5c4)cc([C@@H]4COCCN4)c3C2)nc(C)n1` [Compound Z531, (R)-(6-(3-chloro-1H-pyrrolo[2,3-b]pyridin-5-yl)-8-(morpholin-3-yl)-3,4-dihydroisoquinolin-2(1H)-yl)(2,6-dimethylpyrimidin-4-yl)methanone] was tested, and the IC50 was 385 nM. With `Cc1c[nH]c2ncc(-c3cc4c(c([C@@H]5COCCN5)c3)CN(C3CCOCC3)CC4)cc12` [Compound Z454, (R)-3-(6-(3-methyl-1H-pyrrolo[2,3-b]pyridin-5-yl)-2-(tetrahydro-2H-pyran-4-yl)-1,2,3,4-tetrahydroisoquinolin-8-yl)morpholine] the IC50 was 655 nM. Compound `Cc1c[nH]c2ncc(-c3cc4c(c([C@@H]5COCCN5)c3)CN(C(=O)C3(C)COC3)CC4)cc12` [Compound Z505, (R)-(6-(3-methyl-1H-pyrrolo[2,3-b]pyridin-5-yl)-8-(morpholin-3-yl)-3,4-dihydroisoquinolin-2(1H)-yl)(3-methyloxetan-3-yl)methanone] has an IC50 of 263 nM. `COc1c[nH]c2ncc(-c3cc4c(c([C@@H]5COCCN5)c3)CN(C(=O)N3CC5CCC(C3)O5)CC4)cc12` [Compound Z592] gave an IC50 of 215 nM. Compound `Cc1c[nH]c2ncc(-c3cc4c(c([C@@H]5COCCN5)c3)CN(C(=O)[C@H]3CCOC3)CC4)nc12` [Compound Z630, (6-(7-methyl-5H-pyrrolo[2,3-b]pyrazin-2-yl)-8-((R)-morpholin-3-yl)-3,4-dihydroisoquinolin-2(1H)-yl)((S)-tetrahydrofuran-3-yl)methanone] has an IC50 of 247 nM. `C[C@@H]1CN(C(=O)N2CCc3cc(-c4cnc5[nH]cc(Cl)c5c4)cc([C@@H]4COCCN4)c3C2)CCO1` [Compound Z502, (6-(3-chloro-1H-pyrrolo[2,3-b]pyridin-5-yl)-8-((R)-morpholin-3-yl)-3,4-dihydroisoquinolin-2(1H)-yl)((R)-2-methylmorpholino)methanone] showed an IC50 of 169 nM. Compound `O=S(=O)(C1CC1)N1CCc2cc(-c3cnc4[nH]cc(Cl)c4c3)cc([C@@H]3COCCN3)c2C1` [Compound Z499, (R)-3-(6-(3-chloro-1H-pyrrolo[2,3-b]pyridin-5-yl)-2-(cyclopropylsulfonyl)-1,2,3,4-tetrahydroisoquinolin-8-yl)morpholine] has an IC50 of 219 nM. Compound `O=C(N1CCc2cc(-c3cnc4[nH]cc(Cl)c4c3)cc([C@@H]3COCCN3)c2C1)C1(O)CC1` [Compound Z435, (R)-(6-(3-chloro-1H-pyrrolo[2,3-b]pyridin-5-yl)-8-(morpholin-3-yl)-3,4-dihydroisoquinolin-2(1H)-yl)(1-hydroxycyclopropyl)methanone] has an IC50 of 258 nM. Compound `COCC(=O)N1CCc2cc(-c3cnc4[nH]cc(Cl)c4c3)cc([C@@H]3COCCN3)c2C1` [Compound Z466, (R)-1-[6-(3-chloro-1H-pyrrolo[2,3-b]pyridin-5-yl)-8-morpholin-3-yl-3,4-dihydroisoquinolin-2(1H)-yl]-2-methoxyethan-1-one] has an IC50 of 306 nM. In the case of `Cc1c[nH]c2ncc(-c3cc4c(c([C@@H]5COCCN5)c3)CN(C(=O)N3CCC5(CCOCC5)C3)CC4)cc12` [Compound Z565, (R)-(6-(3-methyl-1H-pyrrolo[2,3-b]pyridin-5-yl)-8-(morpholin-3-yl)-3,4-dihydroisoquinolin-2(1H)-yl)(8-oxa-2-azaspiro[4.5]decan-2-yl)methanone], the IC50 is reported as 245 nM. For `CC(C)(O)C(=O)N1CCc2cc(-c3cnc4[nH]cc(C#N)c4c3)cc([C@@H]3COCCN3)c2C1` [Compound Z506, (R)-5-(2-(2-hydroxy-2-methylpropanoyl)-8-(morpholin-3-yl)-1,2,3,4-tetrahydroisoquinolin-6-yl)-1H-pyrrolo[2,3-b]pyridine-3-carbonitrile], the IC50 was 685 nM. Work on `C[C@@H]1COCCN1C(=O)N1CCc2cc(-c3cnc4[nH]cc(Cl)c4c3)cc([C@@H]3COCCN3)c2C1` [Compound Z500, (6-(3-chloro-1H-pyrrolo[2,3-b]pyridin-5-yl)-8-((R)-morpholin-3-yl)-3,4-dihydroisoquinolin-2(1H)-yl)((R)-3-methylmorpholine)methanone] yielded an IC50 of 143 nM. With `Cc1c[nH]c2ncc(-c3cc4c(c([C@@H]5COCCN5)c3)CN(C(=O)N3CCN(C)CC3)CC4)cc12` [Compound Z482, (R)-(6-(3-methyl-1H-pyrrolo[2,3-b]pyridin-5-yl)-8-(morpholin-3-yl)-3,4-dihydroisoquinolin-2(1H)-yl)(4-methylpiperazin-1-yl)methanone] the IC50 was 311 nM. In the case of `C#Cc1c[nH]c2ncc(-c3cc4c(c([C@@H]5COCCN5)c3)CN(C(=O)C(C)(C)O)CC4)cc12` [Compound Z594, (R)-1-(6-(3-ethynyl-1H-pyrrolo[2,3-b]pyridin-5-yl)-8-(morpholin-3-yl)-3,4-dihydroisoquinolin-2(1H)-yl)-2-hydroxy-2-methylpropan-1-one], the IC50 is reported as 825 nM.
